Values joined by “and” are separate entries in the source; they are usually repeats but may differ in a detail not shown here. Identical values can stand only once.
What was measured:
Histidine--tRNA ligase = biological target: T1, Histidine--tRNA ligase (Leishmania infantum, UniProt A4I591); assay: Leishmania infantum Histidine tRNA synthetase (LdHisRS); type: functional
T1 sequence (A4I591 whole entry): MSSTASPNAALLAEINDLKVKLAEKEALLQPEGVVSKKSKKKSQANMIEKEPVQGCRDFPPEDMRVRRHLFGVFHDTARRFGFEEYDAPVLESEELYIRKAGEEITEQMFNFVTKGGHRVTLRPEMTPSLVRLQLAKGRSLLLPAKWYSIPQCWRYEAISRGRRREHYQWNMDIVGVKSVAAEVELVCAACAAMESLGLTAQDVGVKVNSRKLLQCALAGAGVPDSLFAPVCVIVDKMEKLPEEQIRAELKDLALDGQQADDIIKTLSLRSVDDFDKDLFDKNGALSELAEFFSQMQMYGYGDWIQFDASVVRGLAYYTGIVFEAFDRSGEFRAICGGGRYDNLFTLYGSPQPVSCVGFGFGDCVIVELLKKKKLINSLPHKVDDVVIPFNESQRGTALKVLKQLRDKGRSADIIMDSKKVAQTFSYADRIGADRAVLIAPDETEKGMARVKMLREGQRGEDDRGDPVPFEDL

[1] = biological target: T2, Ubiquitin-activating enzyme e1, putative (Leishmania donovani (strain BPK282A1), UniProt E9BSI1); assay: Leishmania donovani Ubiquitin Activating Enzyme (LdE1); type: functional
T2 sequence (E9BSI1 whole entry): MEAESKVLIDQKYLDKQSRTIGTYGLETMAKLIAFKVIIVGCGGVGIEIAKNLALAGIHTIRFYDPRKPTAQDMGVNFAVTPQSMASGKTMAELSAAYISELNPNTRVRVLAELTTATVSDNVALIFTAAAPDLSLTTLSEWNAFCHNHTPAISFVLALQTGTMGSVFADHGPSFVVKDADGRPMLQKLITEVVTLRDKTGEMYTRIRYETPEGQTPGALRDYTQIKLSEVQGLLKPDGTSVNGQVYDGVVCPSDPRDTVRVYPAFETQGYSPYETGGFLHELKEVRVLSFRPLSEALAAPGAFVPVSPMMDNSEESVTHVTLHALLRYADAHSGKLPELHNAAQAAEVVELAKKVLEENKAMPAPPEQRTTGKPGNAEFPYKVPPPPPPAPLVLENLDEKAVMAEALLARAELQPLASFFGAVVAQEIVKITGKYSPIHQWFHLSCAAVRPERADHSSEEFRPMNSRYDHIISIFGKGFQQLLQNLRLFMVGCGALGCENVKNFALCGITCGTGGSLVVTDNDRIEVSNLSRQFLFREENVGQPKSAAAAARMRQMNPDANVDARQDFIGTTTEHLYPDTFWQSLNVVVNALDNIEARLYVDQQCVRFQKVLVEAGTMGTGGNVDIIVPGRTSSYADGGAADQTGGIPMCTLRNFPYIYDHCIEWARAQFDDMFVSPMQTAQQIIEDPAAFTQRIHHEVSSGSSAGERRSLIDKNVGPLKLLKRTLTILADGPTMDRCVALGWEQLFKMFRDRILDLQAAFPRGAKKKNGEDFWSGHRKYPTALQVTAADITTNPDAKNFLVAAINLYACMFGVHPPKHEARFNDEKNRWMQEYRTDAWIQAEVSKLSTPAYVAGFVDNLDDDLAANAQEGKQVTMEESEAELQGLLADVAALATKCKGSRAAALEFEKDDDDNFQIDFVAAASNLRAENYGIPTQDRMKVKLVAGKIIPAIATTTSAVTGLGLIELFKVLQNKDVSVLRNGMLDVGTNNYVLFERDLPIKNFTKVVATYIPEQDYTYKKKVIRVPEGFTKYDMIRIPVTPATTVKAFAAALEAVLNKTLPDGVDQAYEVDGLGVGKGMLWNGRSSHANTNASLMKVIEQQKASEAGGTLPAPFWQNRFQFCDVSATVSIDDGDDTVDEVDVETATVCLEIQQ

Leishmania donovani = assay: Leishmania intramacrophage assay; type: functional, organism-based; details: Leishmania donovani
ClpP1P2 = ClpP1P2 (Mycobacterium tuberculosis (strain ATCC 25618 / H37Rv), UniProt P9WPC3+P9WPC5); assay: in vitro assay to detect presence of AMC directly proportional to the activity of ClpP1P2. GHDDI collaboration.; type: functional

Structure (SMILES) | IC50 [1] | other results
Cn1nc2c(cc1=O)CN(Cc1nnc(-c3ccco3)o1)CC2 | > 100 µM | IC50 (Histidine--tRNA ligase): 44 µM and 59.9 µM
Cc1ccc(-c2nc(CN3CCc4nn(C)c(=O)cc4C3)no2)cc1 | > 100 µM | IC50 (Histidine--tRNA ligase): 72.7 µM and 85.3 µM
CCCN(C(=O)c1cnccn1)c1nc2c(s1)CCc1c-2cnn1C | > 100 µM | IC50 (Histidine--tRNA ligase): 60.2 µM and 72.5 µM
CC(NC(=O)NCCNc1cnccn1)c1cccs1 (stereo not given) | > 100 µM | IC50 (Leishmania donovani): > 50.1 µM
Cn1nc2c(cc1=O)CN(Cc1nnc(-c3ccc(F)cc3)o1)CC2 | > 100 µM | IC50 (Histidine--tRNA ligase): 83.1 µM and 70.4 µM
COCc1nc2cc(NCc3ccc(CO)o3)ccc2o1 | > 100 µM | IC50 (Histidine--tRNA ligase): 86.1 µM and > 100 µM
CN(C(=O)c1ccccn1)c1nc2c(s1)CCc1c-2cnn1C | > 100 µM | IC50 (Histidine--tRNA ligase): 30.7 µM and 23.3 µM
COCc1nc2cc(NCc3cc[nH]n3)ccc2o1 | > 100 µM | IC50 (Histidine--tRNA ligase): > 100 µM
COCCN(C(=O)c1cnccn1)c1nc2c(s1)CCc1c-2cnn1C | > 100 µM | IC50 (Histidine--tRNA ligase): > 100 µM
COCCNc1ccc(CNC(=O)Nc2cn[nH]c2)cc1 | > 100 µM | –
CC(C)c1nc2n(n1)CC(NCc1nnc(-c3ccco3)o1)CC2 (stereo not given) | > 100 µM | –
Cn1ccnc1CN1CCCN(C(=O)COCC2CC2)CC1 | > 100 µM | –
CC(NC(=O)NCCNc1ncccn1)c1cccs1 (stereo not given) | > 100 µM | –
CC(Cn1cccn1)NCc1nc(-c2ccco2)no1 (stereo not given) | > 100 µM | –
COCc1nc2cc(NCc3scnc3C)ccc2o1 | > 100 µM | IC50 (Histidine--tRNA ligase): 77.5 µM and 90.5 µM
Cc1nc(C(C)(C)C)sc1C(=O)NCCNc1ncccc1C#N | > 100 µM | –
Cc1nc(C)c(C(=O)NCCNc2ncccc2C(F)(F)F)s1 | > 100 µM | –
CCC(O)CN1CCN(C(=O)c2ccc(N(C)C)nn2)CC1 (stereo not given) | > 100 µM | –
CC(NC(=O)NCCNc1ccccn1)c1cccs1 (stereo not given) | > 100 µM | –
Cn1ccnc1CN1CCCN(C(=O)CC(C2CC2)C2CC2)CC1 | > 100 µM | –
CCC1CCCCN1Cc1ncc(C(C)(C)C)o1 (stereo not given) | > 100 µM | –

Structure (SMILES) | IC50 [1] | other results
CCc1nnc(CN2CCCCC2Cn2nc(C)nc2C)o1 (stereo not given) | > 100 µM | –
Cc1nc(C)n(CC2CCCCN2Cc2ncc(C(C)(C)C)o2)n1 (stereo not given) | > 100 µM | –
CC(C)N1CCC(Cc2cc(-c3ccccc3C(=O)O)ncn2)CC1 | > 100 µM | –
CC(Oc1ccccc1)C(=O)N1CCCN(Cc2nccn2C)CC1 (stereo not given) | > 100 µM | –
CC(O)CN1CCN(C(=O)c2ccc(N(C)C)nn2)CC1 (stereo not given) | > 100 µM | –
Cn1nc2c(cc1=O)CN(Cc1coc(-c3ccc(F)cc3)n1)CC2 | > 100 µM | IC50 (Histidine--tRNA ligase): 16.5 µM and 18.8 µM
CN(C)c1ccc(C(=O)N2CCN(CC(O)C(C)(C)C)CC2)nn1 (stereo not given) | > 100 µM | –
CC(O)CN1CCN(C(=O)c2ccc(N(C)C)nc2)CC1 (stereo not given) | > 100 µM | –
CC(Cn1cccn1)NCc1nc(-c2ccsc2)no1 (stereo not given) | > 100 µM | –
O=C(CC1CCCO1)NCc1ccccc1Cn1cncn1 (stereo not given) | > 100 µM | –
CNS(=O)(=O)c1ccc(CNC(=O)Nc2cn[nH]c2)cc1 | > 100 µM | –
COc1ccc(CNCc2ccnc(N3CCCC3)c2)c(OC)c1 | > 100 µM | –
Cn1cc(C(=O)N2C[C@@H]3COC[C@]3(COCc3cccnc3)C2)cn1 | > 100 µM | –
Cc1nc(C)c(C(=O)NCCNc2ncccc2C#N)s1 | > 100 µM | –
CC(C)C(NC(=O)Nc1ccccn1)c1cccs1 (stereo not given) | > 100 µM | –
Cn1nc2c(cc1=O)CN(Cc1nc(C3CC3)no1)CC2 | > 100 µM | IC50 (Histidine--tRNA ligase): 23.8 µM and 20.7 µM
CC(C)N1CCC(Cc2cc(-c3cccc(C(=O)O)c3)ncn2)C1 (stereo not given) | > 100 µM | –
Cc1nc(C)n(CC2CCCN2Cc2ncc(-c3ccccc3)o2)n1 (stereo not given) | > 100 µM | IC50 (ClpP1P2): > 100 µM
CS(=O)(=O)c1ccc(CNC(=O)Nc2cn[nH]c2)cc1 | > 100 µM | –
CN(C)c1ccc(C(=O)N2CCN(CC(C)(C)O)CC2)nn1 | > 100 µM | –
Cc1ccccc1C(=O)N1C[C@@H]2COC[C@]2(COCc2cccnc2)C1 | > 100 µM | –

Source: ChEMBL document CHEMBL3988442, “University of Dundee, Small-Polar-MMV Screening Library” (2021)
